Values of other authors, collected in patent US8815261B2 (priority 2009, dated 2014).
Read-outs that look alike come from different tables or passages of the source.

Structure (SMILES)	logP calculated value of organic acid (PubChem value, as in Example 2 (Table 4))	logP calculated value of organic acid (PubChem value (revised on February, 2009))
O=S(=O)(O)c1ccccc1 [benzenesulfonic acid]	0	
CC(=O)CCC(=O)O [levulinic acid]		−0.5
